Source: patent US9409884B2 (Rigel Pharmaceuticals, Inc., priority 2012, dated 2016)
Blank lines part the entries; values can stand above or below the molecule they belong to.

Molecular target: AMPK
Assay: AMPK activation, enzyme-linked immunosorbent assay
Assay type: biochemical
Procedure, shortened: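 AMPK activation by test compounds was measured by enzyme-linked immunosorbent assay.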

EC50 (Table 14, compounds of Table 7): < 1000 nM
SMILES: N#Cc1ccc(CN2CCC(NC(=O)c3ccc(C(=O)N4CCC(C(=O)c5ccc(N6CCCC6)cc5)CC4)nc3)CC2)cc1F [Compound 7-117, N-(1-(4-cyano-3-fluorobenzyl)piperidin-4-yl)-6-(4-(4-(pyrrolidin-1-yl)benzoyl)piperidine-1-carbonyl)nicotinamide]

EC50 (Table 12, compounds of Table 5): < 1000 nM
SMILES: CC(C)(C)C(=O)N1CCC(Oc2ccc(C(=O)NC3CCN(Cc4ccccc4)CC3)cc2Cl)CC1 [Compound 5-91, N-(1-benzylpiperidin-4-yl)-3-chloro-4-(1-pivaloylpiperidin-4-yloxy)benzamide]

EC50 (Table 8, compounds of Table 1): 1000 to 5000 nM
SMILES: O=C(NC1CCN(Cc2ccncc2)CC1)c1cccc(OC2CCN(c3ccc(C(F)(F)F)cc3)CC2)n1 [Compound 1-43, N-(1-(pyridin-4-ylmethyl)piperidin-4-yl)-6-(1-(4-(trifluoromethyl)phenyl)piperidin-4-yloxy)picolinamide]

EC50 (Table 8, compounds of Table 1): 1000 to 5000 nM
SMILES: CC(C)(C)OC(=O)N1CC[C@H](NC(=O)c2cc3cc(OC4CCN(Cc5ccc(Cl)cc5)CC4)ccc3o2)C1 [Compound 1-127, (S)-tert-butyl 3-(5-(1-(4-chlorobenzyl)piperidin-4-yloxy)benzofuran-2-carboxamido) pyrrolidine-1-carboxylate]

EC50 (Table 10, compounds of Table 3): < 100 nM
SMILES: N#Cc1ccc(C(=O)N2CCC(NC(=O)c3nc4ccc(OC5CCN(c6ccc(C(F)(F)F)cc6)CC5)cc4o3)CC2)cc1 [Compound 3-6, N-(1-(4-cyanobenzoyl)piperidin-4-yl)-6-(1-(4-(trifluoromethyl)phenyl)piperidin-4-yloxy)benzo[d]oxazole-2-carboxamide]

EC50 (Table 14, compounds of Table 7): 1000 to 10000 nM
SMILES: CC(=O)c1ccc(Oc2ccc(NC(=O)c3ccc(C(=O)N4CCN(Cc5ccc(S(C)(=O)=O)cc5)CC4)nc3)cn2)cc1 [Compound 7-76, N-(6-(4-acetylphenoxy)pyridin-3-yl)-6-(4-(4-(methylsulfonyl)benzyl)piperazine-1-carbonyl) nicotinamide]

EC50 (Table 12, compounds of Table 5): < 1000 nM
SMILES: N#Cc1ccc(N2CCC(Oc3ccc(C(=O)NC4CCN(Cc5ccccc5)CC4)c(Cl)c3)CC2)cc1 [Compound 5-49, N-(1-benzylpiperidin-4-yl)-2-chloro-4-(1-(4-cyanophenyl)piperidin-4-yloxy)benzamide]

EC50 (Table 14, compounds of Table 7): 1000 to 10000 nM
SMILES: COc1ccc(CN2CCC(NC(=O)c3ccc(C(=O)N4CCCC(C(=O)c5ccc(OC)cc5)C4)nc3)CC2)cc1 (centres unmarked) [Compound 7-8, 6-(3-(4-methoxybenzoyl)piperidine-1-carbonyl)-N-(1-(4-methoxybenzyl)piperidin-4-yl)nicotinamide]
